Key:
[1] = molecular target: T1, progesterone receptor (Homo sapiens, UniProt P06401); assay: Assay for progesterone receptor activity (CV-1 cells, PRb-BacMam/MMTV-BacMam); format: cell-based; conditions: CV-1 cells transduced with PRb-BacMam and MMTV-BacMam; read-out: pEC50 progesterone receptor activity (converted)
T1 construct: expressed in transfected cells; host or cells: CV-1 cells transduced with PRb-BacMam and MMTV-BacMam
T1 sequence (P06401 1-933): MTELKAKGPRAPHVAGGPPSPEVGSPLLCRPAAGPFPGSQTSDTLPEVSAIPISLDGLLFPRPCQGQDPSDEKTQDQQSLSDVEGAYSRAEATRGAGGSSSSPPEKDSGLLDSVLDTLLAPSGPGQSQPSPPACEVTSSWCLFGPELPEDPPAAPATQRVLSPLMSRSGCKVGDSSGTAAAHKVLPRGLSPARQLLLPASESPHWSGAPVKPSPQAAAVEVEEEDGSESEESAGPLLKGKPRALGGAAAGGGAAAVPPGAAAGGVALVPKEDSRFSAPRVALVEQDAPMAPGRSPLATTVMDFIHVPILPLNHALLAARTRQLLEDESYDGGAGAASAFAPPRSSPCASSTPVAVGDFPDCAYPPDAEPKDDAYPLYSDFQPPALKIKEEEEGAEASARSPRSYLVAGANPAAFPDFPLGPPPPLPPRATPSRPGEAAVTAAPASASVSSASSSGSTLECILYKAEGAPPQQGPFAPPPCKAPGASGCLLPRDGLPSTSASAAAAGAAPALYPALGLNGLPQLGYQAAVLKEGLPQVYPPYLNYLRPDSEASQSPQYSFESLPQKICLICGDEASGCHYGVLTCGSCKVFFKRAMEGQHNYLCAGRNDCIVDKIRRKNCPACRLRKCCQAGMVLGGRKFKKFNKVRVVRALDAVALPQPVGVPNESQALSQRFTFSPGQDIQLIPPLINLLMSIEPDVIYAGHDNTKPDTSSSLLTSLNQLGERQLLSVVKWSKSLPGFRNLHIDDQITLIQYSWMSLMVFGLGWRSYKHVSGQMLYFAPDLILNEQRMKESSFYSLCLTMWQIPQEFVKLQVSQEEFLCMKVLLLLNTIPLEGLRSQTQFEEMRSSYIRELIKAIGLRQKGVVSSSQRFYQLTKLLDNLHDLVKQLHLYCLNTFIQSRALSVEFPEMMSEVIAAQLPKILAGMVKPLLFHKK
Procedure, shortened: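 CV-1 cells co-transduced with PRb-BacMam and MMTV-BacMam (10% each), seeded onto compounds in DMEM with 10% serum. After 24 h, luminescence was read with Steadylite. pEC50 values were estimated from dose-response curves.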

[2] = molecular target: T2, glucocorticoid receptor (Homo sapiens, UniProt P04150); assay: Glucocorticoid receptor binding assay (fluorescence polarisation); conditions: competition with Alexa 555 fluorescently-labelled dexamethasone derivative, full length glucocorticoid receptor; read-out: glucocorticoid binding pIC50 (converted)
T2 construct: a partially purified full length glucocorticoid receptor
T2 sequence (P04150 1-777): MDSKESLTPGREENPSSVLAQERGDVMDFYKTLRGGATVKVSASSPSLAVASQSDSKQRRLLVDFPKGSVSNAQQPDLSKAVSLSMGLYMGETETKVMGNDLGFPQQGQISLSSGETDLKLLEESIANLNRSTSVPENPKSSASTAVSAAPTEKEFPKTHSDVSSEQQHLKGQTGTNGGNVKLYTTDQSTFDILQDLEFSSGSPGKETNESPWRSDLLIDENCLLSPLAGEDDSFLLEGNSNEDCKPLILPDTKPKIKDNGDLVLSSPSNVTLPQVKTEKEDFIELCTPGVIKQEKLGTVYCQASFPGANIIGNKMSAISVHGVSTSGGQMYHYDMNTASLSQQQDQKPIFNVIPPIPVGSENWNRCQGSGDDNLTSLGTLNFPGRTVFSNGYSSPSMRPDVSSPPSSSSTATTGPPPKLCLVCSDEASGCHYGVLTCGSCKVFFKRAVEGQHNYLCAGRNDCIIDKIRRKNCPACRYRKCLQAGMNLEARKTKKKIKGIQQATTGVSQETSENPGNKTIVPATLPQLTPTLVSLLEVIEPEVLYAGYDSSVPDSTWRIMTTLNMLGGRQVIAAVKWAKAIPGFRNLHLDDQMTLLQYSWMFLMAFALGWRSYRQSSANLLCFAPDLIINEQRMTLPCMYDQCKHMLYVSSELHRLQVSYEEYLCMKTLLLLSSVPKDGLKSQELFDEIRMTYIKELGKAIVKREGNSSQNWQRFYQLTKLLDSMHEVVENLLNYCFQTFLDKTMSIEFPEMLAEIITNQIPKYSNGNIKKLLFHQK
Procedure, shortened: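 Compounds in DMSO incubated with fluorescent dexamethasone and partially purified full-length GR plus stabilising buffer components, 2 hrs at room temperature in the dark. Displacement read as decrease in fluorescence polarisation; pIC50 estimated from dose-response curves.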

Row | SMILES | EC50 [1] [nM] | IC50 [2] [nM]
1 | CCN(CC(O)(CNC(=O)c1cnn(-c2ccc(F)cc2)c1N)C(F)(F)F)C(=O)c1c(Cl)cccc1Cl (racemic) [Example 2 (racemic), 5-Amino-N-(2-{[[(2,6-dichlorophenyl)carbonyl](ethyl)amino]methyl}-3,3,3-trifluoro-2-hydroxypropyl)-1-(4-fluorophenyl)-1H-pyrazole-4-carboxamide] | > 1000 | ≤ 316
2 | CN(CC(O)(CNC(=O)c1cnn(-c2ccc(F)cc2)c1N)C(F)(F)F)C(=O)c1c(Cl)cccc1Br (racemic) [Example 16 (racemic), 5-amino-N-(2-{[[(2-bromo-6-chlorophenyl)carbonyl](methyl)amino]methyl}-3,3,3-trifluoro-2-hydroxypropyl)-1-(4-fluorophenyl)-1H-pyrazole-4-carboxamide] | > 1000 | ≤ 316
3 | CCN(CC(O)(CNC(=O)c1cnn(-c2ccc(F)cc2)c1N)C(F)(F)F)C(=O)c1c(F)cccc1C(F)(F)F (racemic) [Example 23 (racemic), 5-amino-N-{2-[(ethyl{[2-fluoro-6-(trifluoromethyl)phenyl]carbonyl}amino)methyl]-3,3,3-trifluoro-2-hydroxypropyl}-1-(4-fluorophenyl)-1H-pyrazole-4-carboxamide] | > 1000 | ≤ 316
4 | Nc1c(C(=O)NCC(O)(CNC(=O)c2c(Cl)cccc2Br)C(F)(F)F)cnn1-c1ccc(F)cc1 (racemic) [Example 12 (racemic), 5-Amino-N-[2-({[(2-bromo-6-chlorophenyl)carbonyl]amino}methyl)-3,3,3-trifluoro-2-hydroxypropyl]-1-(4-fluorophenyl)-1H-pyrazole-4-carboxamide] | > 1000 | ≤ 316
5 | CN(CC(O)(CNC(=O)c1cnn(-c2ccc(F)cc2)c1N)C(F)(F)F)C(=O)c1c(C(F)(F)F)cccc1C(F)(F)F (racemic) [Example 22 (racemic), 5-amino-N-(2-{[{[2,6-bis(trifluoromethyl)phenyl]carbonyl}(methyl)amino]methyl}-3,3,3-trifluoro-2-hydroxypropyl)-1-(4-fluorophenyl)-1H-pyrazole-4-carboxamide] | > 1000 | ≤ 316
6 | Nc1c(C(=O)NCC(O)(CNC(=O)c2c(Cl)cccc2OC(F)F)C(F)(F)F)cnn1-c1ccc(F)cc1 (racemic) [Example 14 (racemic), 5-Amino-N-(2-{[({2-chloro-6-[(difluoromethyl)oxy]phenyl}carbonyl)amino]methyl}-3,3,3-trifluoro-2-hydroxypropyl)-1-(4-fluorophenyl)-1H-pyrazole-4-carboxamide] | > 1000 | ≤ 316
7 | CCN(CC(O)(CNC(=O)c1cnn(-c2ccc(F)cc2)c1N)C(F)(F)F)C(=O)c1c(F)cccc1F (racemic) [Example 5 (racemic), 5-Amino-N-(2-{[[(2,6-difluorophenyl)carbonyl](ethyl)amino]methyl}-3,3,3-trifluoro-2-hydroxypropyl)-1-(4-fluorophenyl)-1H-pyrazole-4-carboxamide] | > 1000 | ≤ 316
8 | CCN(CC(O)(CNC(=O)c1cnn(-c2ccc(F)cc2)c1N)C(F)(F)F)C(=O)c1c(C(F)(F)F)cccc1C(F)(F)F (racemic) [Example 27 (racemic), 5-amino-N-(2-{[{[2,6-bis(trifluoromethyl)phenyl]carbonyl}(ethyl)amino]methyl}-3,3,3-trifluoro-2-hydroxypropyl)-1-(4-fluorophenyl)-1H-pyrazole-4-carboxamide] | > 1000 | ≤ 316
9 | CCN(CC(O)(CNC(=O)c1cnn(-c2ccc(F)cc2)c1N)C(F)(F)F)C(=O)c1c(F)cccc1Cl (racemic) [Example 4 (racemic), 5-Amino-N-(2-{[[(2-chloro-6-fluorophenyl)carbonyl](ethyl)amino]methyl}-3,3,3-trifluoro-2-hydroxypropyl)-1-(4-fluorophenyl)-1H-pyrazole-4-carboxamide] | > 1000 | ≤ 316
10 | Nc1c(C(=O)NCC(O)(CNC(=O)c2c(F)cccc2C(F)(F)F)C(F)(F)F)cnn1-c1ccc(F)cc1 (racemic) [Example 19 (racemic), 5-amino-1-(4-fluorophenyl)-N-{3,3,3-trifluoro-2-[({[2-fluoro-6-(trifluoromethyl)phenyl]carbonyl}amino)methyl]-2-hydroxypropyl}-1H-pyrazole-4-carboxamide] | > 1000 | ≤ 316
11 | Nc1c(C(=O)NCC(O)(CNC(=O)c2c(Cl)cccc2C(F)(F)F)C(F)(F)F)cnn1-c1ccc(F)cc1 (single isomer, unassigned) [Example 44 Enantiomer 1, 5-Amino-N-{2-[({[2-chloro-6-(trifluoromethyl)phenyl]carbonyl}amino)methyl]-3,3,3-trifluoro-2-hydroxypropyl}-1-(4-fluorophenyl)-1H-pyrazole-4-carboxamide] | > 1000 | ≤ 316
12 | Nc1c(C(=O)NCC(O)(CNC(=O)c2c(F)cccc2Cl)C(F)(F)F)cnn1-c1ccc(F)cc1 (racemic) [Example 7 (racemic), 5-Amino-N-[2-({[(2-chloro-6-fluorophenyl)carbonyl]amino}methyl)-3,3,3-trifluoro-2-hydroxypropyl]-1-(4-fluorophenyl)-1H-pyrazole-4-carboxamide] | > 1000 | ≤ 316
13 | Nc1c(C(=O)NCC(O)(CNC(=O)c2c(C(F)(F)F)cccc2C(F)(F)F)C(F)(F)F)cnn1-c1ccc(F)cc1 (racemic) [Example 15 (racemic), 5-amino-N-{2-[({[2,6-bis(trifluoromethyl)phenyl]carbonyl}amino)methyl]-3,3,3-trifluoro-2-hydroxypropyl}-1-(4-fluorophenyl)-1H-pyrazole-4-carboxamide] | > 1000 | ≤ 316
14 | CCN(CC(O)(CNC(=O)c1cnn(-c2ccc(F)cc2)c1N)C(F)(F)F)C(=O)c1c(Cl)cccc1OC(F)F (racemic) [Example 25 (racemic), 5-amino-N-(2-{[({2-chloro-6-[(difluoromethyl)oxy]phenyl}carbonyl)(ethyl)amino]methyl}-3,3,3-trifluoro-2-hydroxypropyl)-1-(4-fluorophenyl)-1H-pyrazole-4-carboxamide] | > 1000 | ≤ 316
15 | CN(CC(O)(CNC(=O)c1cnn(-c2ccc(F)cc2)c1N)C(F)(F)F)C(=O)c1c(F)cccc1Cl (racemic) [Example 9 (racemic), 5-Amino-N-(2-{[[(2-chloro-6-fluorophenyl)carbonyl](methyl)amino]methyl}-3,3,3-trifluoro-2-hydroxypropyl)-1-(4-fluorophenyl)-1H-pyrazole-4-carboxamide] | > 1000 | ≤ 316
16 | Nc1c(C(=O)NCC(O)(CNC(=O)c2c(F)cccc2OC(F)F)C(F)(F)F)cnn1-c1ccc(F)cc1 (single isomer, unassigned) [Example 48 Enantiomer 1, 5-Amino-N-(2-{[({2-[(difluoromethyl)oxy]-6-fluorophenyl}carbonyl)amino]methyl}-3,3,3-trifluoro-2-hydroxypropyl)-1-(4-fluorophenyl)-1H-pyrazole-4-carboxamide] | > 1000 | ≤ 316

Source: US8247377B2, “Non-steroidal glucocorticoid inhibitors and their use in treating inflammation, allergy and auto-immune conditions” (Glaxo Group Limited, priority 2006, dated 2012)
